Common to all, as to assay type: cell-based
For one assay, the target named is T1, EGFR WT (Ba/F3 cells) (Homo sapiens, UniProt P00533).
T1 construct: expressed in transfected cells; host or cells: Ba/F3 (murine pro-B cells), retroviral transduction, puromycin selection, maintained with EGF
Kind of assay: Inhibitor activity on EGFR-dependent cell growth (CellTiter-Glo, 72 h), Ba/F3 EGFR WT. The following applies: read-out: BaF3 WT IC50. From the text: (§1) Example A. Inhibitor Activity on EGFR-Dependent Cell Growth
(§2) Cell lines are generated by transducing Ba/F3 cells with retroviruses containing vectors with EGFR WT, EGFR L858R, EGFR exon 19del, EGFR L858R/C797S, EGFR exon 20 NPG Ins D770_N771, EGFR exon 20 ASV Ins V769_D770, EGFR exon 20 SVD Ins D770_N771, or EGFR exon 20 FQEA Ins A763_V764 genes and a puromycin selection marker. Transduced cells are selected with puromycin for 7 days and are then be transferred into culture media without Interleukin 3 (IL3). EGFR WT cells are maintained with supplemental EGF. Surviving cells are confirmed to express EGFR by Western blot and maintained as a pool. The IC50 date were included in Table 6 and Table 7.
(§3) 1.1 Cells are harvested from flask into cell culture medium and the cell number counted.
(§4) 1.2 Cells are diluted with culture medium to the desired density and 40 μL of cell suspension is added into each well of 384-well cell culture plate and the seeding density is 800 (FQEA, exon 19del), 600 (WT, NPG, L858R/C797S), or 400 (ASV, SVD, L858R) cells/well.
(§5) 2 Compound Preparation and Treatment
(§6) 2.1 Test compounds are dissolved to 10 mM in a DMSO stock solution. 45 μL of stock solution is transferred to a 384 polypropylene plate (pp-plate). Perform 3-fold, 10-point dilution via transferring 15 μL compound into 30 μL DMSO using a TECAN (EVO200) liquid handler.
(§7) 2.2 Spin plates at room temperature at 1,000 RPM for 1 minute.
(§8) 2.3 Transfer 120 nL of diluted compound from compound source plate into the cell plate.
(§9) 2.4 After compound treatment for 72 hours, perform CTG detection for compound treatment plates as described in “Detection” section.
(§10) 3.1 Plates are removed from incubators and equilibrated at room temperature for 15 minutes.
(§11) 3.2 Thaw the CellTiter Glo reagents and allow to equilibrate to room temperature before the experiment.
(§12) 3.3 Add 40 μL of CellTiter-Glo reagent into each well (at 1:1 to culture medium). Then place the plates at room temperature for 30 min followed by reading on EnVision.
(§13) 4.1 Inhibition activity is calculated following the formula below:
(§14) % Inhibition=100×(LumHC−LumSample)/(LumHC−LumLC) • where HC is obtained from cells treated with 0.1% DMSO only; and LC is obtained from culture medium only.
(§15) 4.2 2. Calculate the IC50 by fitting the Curve using Xlfit (v5.3.1.3), equation 201.
(§16) Y=Bottom+(Top−Bottom)/(1+10^((Log IC50−X)*HillSlope))

For assay [1], the target named is T2, EGFR exon 20 ASV Ins V769_D770 (Ba/F3 cells) (Homo sapiens, UniProt P00533, INS769ASV).
T2 construct: expressed in transfected cells; host or cells: Ba/F3 (murine pro-B cells), retroviral transduction, puromycin selection, IL3-independent pool
T2 sequence (P00533 with tags, fused parts or gaps INS769ASV): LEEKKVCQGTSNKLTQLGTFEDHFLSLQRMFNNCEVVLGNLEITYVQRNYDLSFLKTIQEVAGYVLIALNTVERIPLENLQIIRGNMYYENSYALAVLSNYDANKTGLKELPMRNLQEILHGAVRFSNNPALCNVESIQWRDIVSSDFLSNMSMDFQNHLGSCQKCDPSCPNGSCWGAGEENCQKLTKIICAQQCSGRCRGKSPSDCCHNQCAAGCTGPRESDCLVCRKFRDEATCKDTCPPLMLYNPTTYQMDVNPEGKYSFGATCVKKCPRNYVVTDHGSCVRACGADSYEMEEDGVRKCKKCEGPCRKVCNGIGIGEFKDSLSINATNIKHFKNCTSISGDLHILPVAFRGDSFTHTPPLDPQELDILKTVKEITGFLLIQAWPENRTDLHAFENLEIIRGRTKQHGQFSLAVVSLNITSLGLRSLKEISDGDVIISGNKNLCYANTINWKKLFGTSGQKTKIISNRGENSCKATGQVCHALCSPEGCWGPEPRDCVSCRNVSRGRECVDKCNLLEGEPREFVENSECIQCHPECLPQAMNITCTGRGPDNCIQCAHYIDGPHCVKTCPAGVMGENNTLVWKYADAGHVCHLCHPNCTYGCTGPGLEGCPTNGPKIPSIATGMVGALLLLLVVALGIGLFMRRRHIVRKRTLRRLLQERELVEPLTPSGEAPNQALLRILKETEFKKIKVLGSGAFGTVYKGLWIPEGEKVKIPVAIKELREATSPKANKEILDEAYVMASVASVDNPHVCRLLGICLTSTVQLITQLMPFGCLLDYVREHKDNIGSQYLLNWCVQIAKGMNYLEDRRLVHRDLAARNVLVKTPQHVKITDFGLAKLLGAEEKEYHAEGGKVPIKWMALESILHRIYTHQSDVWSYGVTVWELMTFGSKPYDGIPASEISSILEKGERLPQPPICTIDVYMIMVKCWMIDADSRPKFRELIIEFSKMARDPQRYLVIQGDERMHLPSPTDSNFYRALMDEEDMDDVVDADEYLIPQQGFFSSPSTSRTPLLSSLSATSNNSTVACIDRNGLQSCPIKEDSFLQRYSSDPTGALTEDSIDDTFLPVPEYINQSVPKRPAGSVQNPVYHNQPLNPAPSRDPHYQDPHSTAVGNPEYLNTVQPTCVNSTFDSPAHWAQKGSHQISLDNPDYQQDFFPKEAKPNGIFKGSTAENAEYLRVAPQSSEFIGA
Nature of the assay: Inhibitor activity on EGFR-dependent cell growth (CellTiter-Glo, 72 h), Ba/F3 EGFR exon 20 ASV Ins. The following applies: read-out: BaF3 ASV IC50.
Text: as §1, §2, §3, §4, §5, §6, §7, §8, §9, §10, §11, §12, §13, §14, §15, §16

The target of assay [2] is T3, EGFR exon 20 SVD Ins D770_N771 (Ba/F3 cells) (Homo sapiens, UniProt P00533, INS770SVD).
T3 construct: expressed in transfected cells; host or cells: Ba/F3 (murine pro-B cells), retroviral transduction, puromycin selection, IL3-independent pool
T3 sequence (P00533 with tags, fused parts or gaps INS770SVD): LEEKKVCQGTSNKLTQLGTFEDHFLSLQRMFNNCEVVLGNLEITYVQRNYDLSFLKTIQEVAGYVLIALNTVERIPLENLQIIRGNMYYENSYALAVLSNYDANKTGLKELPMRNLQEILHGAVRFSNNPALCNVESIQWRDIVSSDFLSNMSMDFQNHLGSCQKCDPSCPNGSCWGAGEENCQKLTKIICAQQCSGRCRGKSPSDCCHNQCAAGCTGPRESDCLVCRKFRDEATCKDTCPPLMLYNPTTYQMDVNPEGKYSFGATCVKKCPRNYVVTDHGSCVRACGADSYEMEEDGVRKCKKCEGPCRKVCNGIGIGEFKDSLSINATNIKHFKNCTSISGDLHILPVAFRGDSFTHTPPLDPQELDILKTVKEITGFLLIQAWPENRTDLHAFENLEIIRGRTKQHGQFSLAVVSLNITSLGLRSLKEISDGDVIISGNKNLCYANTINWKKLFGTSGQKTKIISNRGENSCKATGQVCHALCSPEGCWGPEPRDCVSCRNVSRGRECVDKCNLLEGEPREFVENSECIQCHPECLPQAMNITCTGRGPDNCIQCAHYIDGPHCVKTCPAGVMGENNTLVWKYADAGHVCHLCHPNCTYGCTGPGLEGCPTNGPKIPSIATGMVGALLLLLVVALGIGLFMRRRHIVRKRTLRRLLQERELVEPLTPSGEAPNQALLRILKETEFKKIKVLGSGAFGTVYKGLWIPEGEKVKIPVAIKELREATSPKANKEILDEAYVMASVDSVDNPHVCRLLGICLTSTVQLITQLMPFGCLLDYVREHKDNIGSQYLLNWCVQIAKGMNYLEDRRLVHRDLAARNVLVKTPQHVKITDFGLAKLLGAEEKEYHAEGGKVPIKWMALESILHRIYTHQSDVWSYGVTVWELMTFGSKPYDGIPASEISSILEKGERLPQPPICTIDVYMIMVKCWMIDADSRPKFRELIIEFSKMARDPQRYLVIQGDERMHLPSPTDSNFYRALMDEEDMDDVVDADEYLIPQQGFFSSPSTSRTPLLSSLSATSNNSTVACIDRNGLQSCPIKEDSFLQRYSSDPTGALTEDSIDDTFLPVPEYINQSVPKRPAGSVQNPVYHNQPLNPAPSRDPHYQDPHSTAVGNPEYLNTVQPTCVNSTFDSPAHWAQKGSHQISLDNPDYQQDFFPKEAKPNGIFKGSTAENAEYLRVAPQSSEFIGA
Kind of assay: Inhibitor activity on EGFR-dependent cell growth (CellTiter-Glo, 72 h), Ba/F3 EGFR exon 20 SVD Ins. The following applies: read-out: BaF3 SVD IC50.
Text: as §1, §2, §3, §4, §5, §6, §7, §8, §9, §10, §11, §12, §13, §14, §15, §16

Assay [3] concerns the target T4, EGFR exon 20 FQEA Ins A763_V764 (Ba/F3 cells) (Homo sapiens, UniProt P00533, INS763FQEA).
T4 construct: expressed in transfected cells; host or cells: Ba/F3 (murine pro-B cells), retroviral transduction, puromycin selection, IL3-independent pool
Nature of the assay: Inhibitor activity on EGFR-dependent cell growth (CellTiter-Glo, 72 h), Ba/F3 EGFR exon 20 FQEA Ins. Conditions: read-out: BaF3 FQEA IC50.
Text: as §1, §2, §3, §4, §5, §6, §7, §8, §9, §10, §11, §12, §13, §14, §15, §16

Each structure is given as a SMILES string.

T4 sequence (P00533 with tags, fused parts or gaps INS763FQEA): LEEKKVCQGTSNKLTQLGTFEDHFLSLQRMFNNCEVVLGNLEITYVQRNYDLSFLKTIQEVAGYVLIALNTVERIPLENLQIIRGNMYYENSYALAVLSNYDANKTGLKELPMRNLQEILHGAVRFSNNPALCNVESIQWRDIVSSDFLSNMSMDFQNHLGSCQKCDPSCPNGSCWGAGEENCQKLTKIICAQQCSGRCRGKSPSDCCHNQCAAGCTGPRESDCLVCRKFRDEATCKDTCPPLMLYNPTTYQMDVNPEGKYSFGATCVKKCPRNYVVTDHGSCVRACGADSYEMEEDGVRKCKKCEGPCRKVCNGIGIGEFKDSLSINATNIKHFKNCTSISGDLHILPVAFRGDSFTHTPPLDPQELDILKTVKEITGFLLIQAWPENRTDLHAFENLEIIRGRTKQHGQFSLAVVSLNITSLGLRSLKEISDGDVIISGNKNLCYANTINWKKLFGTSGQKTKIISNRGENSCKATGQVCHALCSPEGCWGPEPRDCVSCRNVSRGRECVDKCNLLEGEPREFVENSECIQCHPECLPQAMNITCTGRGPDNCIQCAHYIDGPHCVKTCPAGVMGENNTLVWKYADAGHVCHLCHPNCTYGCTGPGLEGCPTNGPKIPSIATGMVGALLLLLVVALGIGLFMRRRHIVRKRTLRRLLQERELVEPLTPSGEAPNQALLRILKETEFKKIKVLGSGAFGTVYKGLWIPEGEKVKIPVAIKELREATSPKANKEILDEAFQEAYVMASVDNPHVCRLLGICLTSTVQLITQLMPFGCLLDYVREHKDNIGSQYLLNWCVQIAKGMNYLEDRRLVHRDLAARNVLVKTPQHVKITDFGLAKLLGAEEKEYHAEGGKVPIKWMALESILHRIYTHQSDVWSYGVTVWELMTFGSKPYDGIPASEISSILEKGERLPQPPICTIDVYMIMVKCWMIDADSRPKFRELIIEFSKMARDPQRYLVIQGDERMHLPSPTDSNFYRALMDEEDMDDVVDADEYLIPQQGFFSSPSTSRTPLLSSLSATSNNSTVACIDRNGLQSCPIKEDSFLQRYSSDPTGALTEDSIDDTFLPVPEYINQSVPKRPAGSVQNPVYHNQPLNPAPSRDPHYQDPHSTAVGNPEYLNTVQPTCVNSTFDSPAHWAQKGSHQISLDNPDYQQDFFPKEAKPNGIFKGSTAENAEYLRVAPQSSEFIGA
T1 sequence (P00533 25-1210): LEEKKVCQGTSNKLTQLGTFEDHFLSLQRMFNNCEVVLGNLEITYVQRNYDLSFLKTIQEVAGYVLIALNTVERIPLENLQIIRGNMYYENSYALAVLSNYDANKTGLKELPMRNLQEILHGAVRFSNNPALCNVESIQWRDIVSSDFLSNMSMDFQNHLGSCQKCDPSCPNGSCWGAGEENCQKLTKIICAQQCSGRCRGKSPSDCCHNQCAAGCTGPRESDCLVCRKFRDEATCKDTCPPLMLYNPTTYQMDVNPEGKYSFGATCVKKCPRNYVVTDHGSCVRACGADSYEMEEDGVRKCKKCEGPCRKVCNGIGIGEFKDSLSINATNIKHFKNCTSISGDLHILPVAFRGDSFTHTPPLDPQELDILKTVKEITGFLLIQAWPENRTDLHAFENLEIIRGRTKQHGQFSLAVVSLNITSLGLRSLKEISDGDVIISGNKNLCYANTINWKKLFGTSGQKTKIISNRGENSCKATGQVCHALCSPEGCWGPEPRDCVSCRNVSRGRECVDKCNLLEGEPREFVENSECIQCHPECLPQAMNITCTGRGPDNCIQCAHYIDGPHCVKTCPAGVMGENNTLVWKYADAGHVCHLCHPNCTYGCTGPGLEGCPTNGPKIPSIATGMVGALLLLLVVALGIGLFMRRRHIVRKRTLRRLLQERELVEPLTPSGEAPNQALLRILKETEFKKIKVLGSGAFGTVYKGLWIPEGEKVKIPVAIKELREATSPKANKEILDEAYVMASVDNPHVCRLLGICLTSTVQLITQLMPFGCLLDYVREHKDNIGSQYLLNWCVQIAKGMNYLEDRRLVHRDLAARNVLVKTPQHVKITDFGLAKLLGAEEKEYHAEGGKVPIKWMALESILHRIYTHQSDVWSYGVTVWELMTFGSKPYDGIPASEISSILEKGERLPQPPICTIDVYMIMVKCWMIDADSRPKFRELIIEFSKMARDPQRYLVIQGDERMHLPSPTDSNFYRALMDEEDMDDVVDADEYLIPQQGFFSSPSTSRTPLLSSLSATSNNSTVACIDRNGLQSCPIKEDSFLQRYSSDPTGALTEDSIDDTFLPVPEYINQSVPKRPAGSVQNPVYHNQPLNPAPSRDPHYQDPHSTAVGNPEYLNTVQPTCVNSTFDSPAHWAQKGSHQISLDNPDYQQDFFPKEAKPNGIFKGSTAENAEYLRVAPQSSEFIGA

Regarding `COc1c(Cl)cccc1Nc1c(-c2ccncc2F)[nH]c2c1C(=O)NCC2C[C@H]1CO[C@H](CN(C)C)CO1` (single isomer, unassigned) [Compound 565, (7R*)-3-[(3-chloro-2-methoxyphenyl)amino]-7-{[(2S,5R)-5-[(dimethylamino)methyl]-1,4-dioxan-2-yl]methyl}-2-(3-fluoropyridin-4-yl)-1H,5H,6H,7H-pyrrolo[3,2-c]pyridin-4-one], the figures for the IC50 (on EGFR WT (Ba/F3 cells); in assay [1]) were over 1000 nM and 100 to 1000 nM, respectively.
For the compound `COC[C@@H]1CNC(=O)c2c1[nH]c(-c1ccnc3ccc(OC)nc13)c2Nc1cccc(Cl)c1OC` (single isomer, unassigned) [Compound 765], the half-maximal inhibitory concentration (IC50) (at EGFR WT (Ba/F3 cells); in assay [1]; in assay [2]; in assay [3]) was under 100 nM throughout.
As for `COc1c(Cl)cccc1Nc1c(-c2ccnc3ccc(OC4(C)CC4)nc23)[nH]c2c1C(=O)NC[C@H]2C` (single isomer, unassigned) [Compound 774], the 50% inhibitory concentration (IC50) (at EGFR WT (Ba/F3 cells); in assay [1]; in assay [2]; in assay [3]) was under 100 nM in each case.
Take `COc1c(Cl)cccc1Nc1c(-c2ccnc3ccc(OC4(C)CC4)nc23)[nH]c2c1C(=O)NC[C@@H]2C` (single isomer, unassigned) [Compound 775]: the IC50 (on EGFR WT (Ba/F3 cells); in assay [1]; in assay [2]; in assay [3]) was under 100 nM in each case.
For `COCCC1(C)CNC(=O)c2c1[nH]c(-c1ccncc1F)c2Nc1cccc(Cl)c1OC` (single isomer, unassigned) [Compound 780], the IC50 on EGFR WT (Ba/F3 cells) is […]; in assay [1], […].
As to `COc1c(Cl)cccc1Nc1c(-c2ccncc2F)[nH]c2c1C(=O)NC[C@@]21CCOC1` (single isomer, unassigned) [Compound 781], the half-maximal inhibitory concentration (IC50) was over 1000 nM at EGFR WT (Ba/F3 cells), 100 to 1000 nM in assay [1], 100 to 1000 nM in assay [2] and 100 to 1000 nM in assay [3].
`COc1c(Cl)cccc1Nc1c(-c2ccncc2F)[nH]c2c1C(=O)NCC21CCOC1` (single isomer, unassigned) [Compound 782]: the IC50 on EGFR WT (Ba/F3 cells) was over 1000 nM; in assay [1], 100 to 1000 nM; in assay [2], 100 to 1000 nM; in assay [3] it was 100 to 1000 nM.
`COc1c(Cl)cccc1Nc1c(-c2ccncc2F)[nH]c2c1C(=O)NCC2CC1CCO1` (single isomer, unassigned) [Compound 783]: the IC50 is over 1000 nM on EGFR WT (Ba/F3 cells), under 100 nM in assay [1] and 100 to 1000 nM in assay [3].
In the same order, the values of `COc1c(Cl)cccc1Nc1c(-c2ccncc2F)[nH]c2c1C(=O)NCC2CC1CCO1` (single isomer, unassigned) [Compound 784] are over 1000 nM, 100 to 1000 nM and 100 to 1000 nM.
In the same order, the values of `COc1c(Cl)cccc1Nc1c(-c2ccncc2F)[nH]c2c1C(=O)NCC2CC1CCO1` (single isomer, unassigned) [Compound 785] are 100 to 1000 nM, under 100 nM and under 100 nM.
Take `COc1c(Cl)cccc1Nc1c(-c2ccncc2F)[nH]c2c1C(=O)NCC2CC1CCO1` (single isomer, unassigned) [Compound 786]: the results for the half-inhibitory concentration (IC50) (on EGFR WT (Ba/F3 cells); in assay [1]; in assay [3]) were 100 to 1000 nM, under 100 nM and 100 to 1000 nM, respectively.
Regarding `COCC[C@@H]1CNC(=O)c2c(Nc3cccc(Cl)c3OC)c(-c3ccncn3)n(C)c21` (single isomer, unassigned) [Compound 796], the IC50 (on EGFR WT (Ba/F3 cells); in assay [1]; in assay [2]; in assay [3]) was over 1000 nM throughout.
Take `COCC[C@H]1CNC(=O)c2c(Nc3cccc(Cl)c3OC)c(-c3ccncn3)n(C)c21` (single isomer, unassigned) [Compound 797]: the IC50 (at EGFR WT (Ba/F3 cells); in assay [1]; in assay [2]; in assay [3]) was over 1000 nM in each case.
With `CC[C@H]1CNC(=O)c2c1[nH]c(-c1ccnc(N)n1)c2Nc1cccc(Cl)c1OC` [189b], the IC50 at EGFR WT (Ba/F3 cells) is 100 to 1000 nM; in assay [1] it was under 100 nM; in assay [2], under 100 nM; in assay [3] it was under 100 nM.
As for `COc1ccc2nccc(-c3[nH]c4c(c3Nc3cccc(Cl)c3OC)C(=O)NC[C@@H]4C)c2n1` [310b], the half-maximal inhibitory concentration (IC50) (on EGFR WT (Ba/F3 cells); in assay [1]; in assay [2]; in assay [3]) was under 100 nM in each case.
Turning to `COCC[C@@H]1CNC(=O)c2c1[nH]c(-c1ccnc(C)n1)c2Nc1cccc(Cl)c1OC` [463a], the 50% inhibitory concentration (IC50) is over 1000 nM at EGFR WT (Ba/F3 cells), 100 to 1000 nM in assay [1], under 100 nM in assay [2] and 100 to 1000 nM in assay [3].
Regarding `COc1c(Cl)cccc1Nc1c(-c2ccncc2F)[nH]c2c1C(=O)NC[C@H]2CC1COC1` [468b], the IC50 at EGFR WT (Ba/F3 cells) is over 1000 nM; in assay [1] it was 100 to 1000 nM; in assay [2], 100 to 1000 nM; in assay [3] it was 100 to 1000 nM.
In the case of `COc1c(F)cccc1Nc1c(-c2ccncc2F)[nH]c2c1C(=O)NC[C@@H]2C[C@@H]1CCO1` [Compound 422b, (7S)-3-[(3-fluoro-2-methoxyphenyl)amino]-2-(3-fluoropyridin-4-yl)-7-[(2R)-oxetan-2-ylmethyl]-1H,5H,6H,7H-pyrrolo[3,2-c]pyridin-4-one], the IC50 on EGFR WT (Ba/F3 cells) is over 1000 nM; in assay [1], 100 to 1000 nM; in assay [2] it was 100 to 1000 nM; in assay [3] it was 100 to 1000 nM.
As for `COCC[C@H]1CNC(=O)c2c1[nH]c(-c1ccncn1)c2Nc1cccc(F)c1OC` [Compound 447b], the IC50 at EGFR WT (Ba/F3 cells) was over 1000 nM; in assay [1], 100 to 1000 nM; in assay [2], 100 to 1000 nM; in assay [3] it was 100 to 1000 nM.
Consider `COCC[C@@H]1CNC(=O)c2c1[nH]c(-c1ccncc1F)c2Nc1cccc(F)c1OC(F)F` [Compound 470, (7R)-3-{[2-(difluoromethoxy)-3-fluorophenyl]amino}-2-(3-fluoropyridin-4-yl)-7-(2-methoxyethyl)-1H,5H,6H,7H-pyrrolo[3,2-c]pyridin-4-one], for which the IC50 on EGFR WT (Ba/F3 cells) was 100 to 1000 nM; in assay [1], under 100 nM; in assay [2], under 100 nM; in assay [3], 100 to 1000 nM.
For `COCC[C@H]1CNC(=O)c2c1[nH]c(-c1ccncc1F)c2Nc1cccc(F)c1OC(F)F` [Compound 471, (7S)-3-{[2-(difluoromethoxy)-3-fluorophenyl]amino}-2-(3-fluoropyridin-4-yl)-7-(2-methoxyethyl)-1H,5H,6H,7H-pyrrolo[3,2-c]pyridin-4-one], the IC50 at EGFR WT (Ba/F3 cells) was over 1000 nM; in assay [1], 100 to 1000 nM; in assay [2] it was 100 to 1000 nM; in assay [3], 100 to 1000 nM.
On to `COc1c(Cl)cccc1Nc1c(-c2ccncc2F)[nH]c2c1C(=O)NCC2CCF` (stereo not shown) [Compound 473, 3-[(3-chloro-2-methoxyphenyl)amino]-7-(2-fluoroethyl)-2-(3-fluoropyridin-4-yl)-1H,5H,6H,7H-pyrrolo[3,2-c]pyridin-4-one], for which the IC50 at EGFR WT (Ba/F3 cells) is over 1000 nM; in assay [1] it was 100 to 1000 nM; in assay [2], 100 to 1000 nM; in assay [3], 100 to 1000 nM.
Turning to `COc1c(Cl)cccc1Nc1c(-c2ccncc2F)[nH]c2c1C(=O)NC[C@@H]2CC(N)=O` [Compound 474], the IC50 (at EGFR WT (Ba/F3 cells); in assay [1]; in assay [2]; in assay [3]) was over 1000 nM throughout.
In the case of `COc1c(Cl)cccc1Nc1c(-c2ccncc2F)[nH]c2c1C(=O)NCC2` [compound 410], the results for the IC50 (on EGFR WT (Ba/F3 cells); in assay [3]) were over 1000 nM and 100 to 1000 nM, respectively.
In the same order, the values of `COc1c(Cl)cccc1Nc1c(-c2ccncn2)[nH]c2c1C(=O)NCC2` [compound 675, 3-[(3-chloro-2-methoxyphenyl)amino]-2-(pyrimidin-4-yl)-1H,5H,6H,7H-pyrrolo[3,2-c]pyridin-4-one] are over 1000 nM and 100 to 1000 nM.
